Patent US3972883A, “1,6-Dimethyl-8β-[2' or 3'-pyrroyloxyethyl or substituted pyrroyloxyethyl]-10α-methoxyergolene compounds” (Societa Farmaceutici Italia S.p.A., priority 1973, dated 1976)

Columns and labels:
[1] = test system: lethal effects of Adrenaline; assay: Adrenolytic activity "in vivo": protection against the lethal effects of Adrenaline (Luduena et al.); conditions: Rattus norvegicus, po; rats, os, 60 minutes before 200 mcg/Kg Adrenaline endovenous; read-out: ID50 (dose protecting 50% of the animals from the lethal effects of Adrenaline)
Procedure: (§1) For the adrenolytic activity "in vivo" the method of Luduena et al. (Arch. int. Pharmacodyn., 122, 111, 1959) has been used, based on the evaluation of the protective action of the adrenolytic compounds against the lethal effects of Adrenaline.
(§2) The drugs under examination are administered by the endovenous route dissolved in water, and by the oral route they are dissolved or suspended in 5% arabic gum, respectively at 5 and 60 minutes before a fixed dose of 200 mcg/Kg of Adrenaline by the endovenous route.
(§3) Always 10 rats have been employed per group.
(§4) The activity of the drug is expressed as the dose protecting 50% of the animals from the lethal effects of Adrenaline administered by the endovenous route (ED50).

[2] = Toxicity: LD50 by the oral route, 7 days follow-up; conditions: mouse, in vivo, mice, os, followed for 7 days
Procedure: (§5) In order to evaluate the toxicity of the drugs under examination, increasing doses are administered to groups of 5-10 mice which are then followed for a period of 7 days.
(§6) For administration by the oral route, the compounds are dissolved or suspended, according to the solubility, in 5% arabic gum. The LD50 expresses the dose of drug which causes the death of 50% of the animals.

[3] = Therapeutic index (LD50/ID50), oral; conditions: in vivo, os, LD50 in mice, ID50 in rats
Procedure: as §1, §2, §3, §4, §5, §6

[4] = test system: contractions caused by Adrenaline in seminal small bladder of Guinea-pig; assay: Adrenolytic activity "in vitro": inhibition of contractions induced by Adrenaline in isolated seminal small bladder; conditions: Tyrode, 38°C, 3 minutes of contact, 1 mcg/ml Adrenaline
Procedure: The adrenolytic activity of the new esters has been studied in comparison with that of Nicergoline [1,6-dimethyl-8β-(5'-bromonicotinoyloxymethyl)-10α-methoxyergoline] and of dihydroergotamine. The activity "in vitro" has been determined employing seminal small bladder of Guinea-pig immersed in Tyrode liquid wherein oxygen and 5% carbon dioxide are bubbled.
The bath temperature is maintained constant at 38°C. The contractions induced by Adrenaline are registered on a chimograph by means of an isotonic lever. The activity of the drug under examination is expressed as the concentration in mcg/ml able, after 3 minutes of contact, to inhibit 50% of the contractions caused by 1 mcg/ml of Adrenaline (IC50).

[5] = Pharmacological activity of intermediates, general statement

Row | Compound | ED50 [1] | LD50 at 168 h [2] | selectivity ratio [3] | IC50 (concentration inhibiting 50% of the contractions caused by 1 mcg/ml of Adrenaline) [4] | pharmacological activity [5]
1 | CO[C@]12C[C@@H](CCOC(=O)c3c(C)cc(C)n3C)CN(C)[C@@H]1Cc1cn(C)c3cccc2c13 [1,6-Dimethyl-8β-[1',3',5'-trimethyl-2'-pyrroyloxyethyl]-10α-methoxyergoline] | 0.1 mg/kg | 100 mg/kg | 1300 |  | 
2 | CO[C@]12C[C@@H](CCOC(=O)c3ccc[nH]3)CN(C)[C@@H]1Cc1cn(C)c3cccc2c13 [1,6-Dimethyl-8β-[2'-pyrroyloxyethyl]-10α-methoxyergoline] | 0.06 mg/kg | 450 mg/kg | 6600 |  | 
3 | CO[C@]12C[C@@H](COC(=O)c3cncc(Br)c3)CN(C)[C@@H]1Cc1cn(C)c3cccc2c13 [Nicergoline, 1,6-dimethyl-8β-(5'-bromonicotinoyloxymethyl)-10α-methoxyergoline, reference compound] | 7 mg/kg | 632 mg/kg | 90 | 1 ng/mL | 
4 | CO[C@]12C[C@@H](CCO)CN(C)[C@@H]1Cc1cn(C)c3cccc2c13 [(V), 1,6-Dimethyl-8β-hydroxyethyl-10α-methoxyergoline] |  |  |  |  | slight pharmacological activity
5 | CO[C@]12C[C@@H](CCOC(=O)c3cc[nH]c3C)CN(C)[C@@H]1Cc1cn(C)c3cccc2c13 [1,6-Dimethyl-8β-[2'-methyl-3'-pyrroyloxy-ethyl]-10α-methoxyergoline] | 0.1 mg/kg | 100 mg/kg | 1300 | 1 ng/mL | 
6 | CCn1cccc1C(=O)OCC[C@H]1CN(C)[C@@H]2Cc3cn(C)c4cccc(c34)[C@@]2(OC)C1 [1,6-Dimethyl-8β-[1'-ethyl-2'-pyrroyloxyethyl]-10α-methoxyergoline] | 0.025 mg/kg | 180 mg/kg | 5200 |  | 
7 | CO[C@]12C[C@@H](CCOC(=O)c3[nH]c(C)cc3C)CN(C)[C@@H]1Cc1cn(C)c3cccc2c13 [1,6-Dimethyl-8β-[3',5'-dimethyl-2'-pyrroyloxyethyl]-10α-methoxyergoline] | 0.12 mg/kg | 300 mg/kg | 3750 |  | 
8 | CN1C[C@H](C(=O)N[C@]2(C)O[C@@]3(O)[C@@H]4CCCN4C(=O)[C@H](Cc4ccccc4)N3C2=O)C[C@@H]2c3cccc4[nH]cc(c34)C[C@H]21 [Dihydroergotamine, reference compound] | 15 mg/kg |  |  | 15 ng/mL | 
